In publication PMC6776084 (ChemMedChem, 2009):
Read-outs that look alike come from different tables or passages of the source.

Experiments:
[1] = system: HIV-1 based vector containing wild-type (wt) HIV-1 RT; conditions: for EC50: read-out: EC50(HOS), HOS cells, 48 h, wt HIV-1 RT vector
[2] = system: HIV-1 based vector containing wild-type (wt) HIV-1 RT; assay type: cell-based; conditions: for EC50: read-out: EC50(HOS-313), HOS-313 cells (HSV-1 TK), 48 h, wt HIV-1 RT vector
HOS-313 cells = assay type: cell-based, human; conditions: read-out: CC50(HOS-313), absence of virus, ATP level
[3] = system: cellular thymidine kinase (TK); conditions: cited from earlier work
HIV = conditions: qualitative; cited from earlier work

Nc1ncnc2c1ncn2[C@@]12C=C[C@@H](CO)[C@@H]1C2 [Compound 6c, ((1′S, 2′R, 5′S)-5-(6-Amino-9H-purin-9-yl)bicyclo[3.1.0]hex-3-en-2-yl)methanol]
Anti-HIV activity (HIV-1): inactive

Nc1ncnc2c1ncn2[C@H]1C=C[C@]2(CO)C[C@H]12 [Compound 4c, ((1′R, 4′S, 5′S)-4-(6-Amino-9H-purin-9-yl)bicyclo[3.1.0]hex-2-en-1-yl)methanol]
Selectivity index (cytotoxicity versus infectivity), HOS cells [1]: 25 fold | EC50 [1]: 16.7 µM | Anti-HIV activity (HIV-1): active | EC50 [2]: 11.1 µM | CC50 (HOS-313 cells): 246 µM | CC50 (HOS cells; read-out: CC50(HOS), HOS cells, absence of virus, ATP level): 423 µM

Nc1nc2c(ncn2[C@@]23C=C[C@@H](CO)[C@@H]2C3)c(=O)[nH]1 [Compound 6b, 2-Amino-9-((1′S, 4′R, 5′S)-4-(hydroxymethyl)bicyclo[3.1.0]hex-2-en-1-yl)-1H-purin-6(9H)-one]
Anti-HIV activity (HIV-1): inactive

Nc1ccn([C@H]2C=C[C@]3(CO)C[C@H]23)c(=O)n1 [Compound 4d, 4-Amino-1-((1′S, 2′S, 5′R)-5-(hydroxymethyl)bicyclo[3.1.0]hex-3-en-2-yl)pyrimidin-2(1H)-one]
Anti-HIV activity (HIV-1): inactive | Cytotoxicity (qualitative) (HOS cells): relatively non-toxic

Cc1cn([C@@]23C=C[C@@H](CO)[C@@H]2C3)c(=O)[nH]c1=O [Compound 6a, 1-((1′S, 4′R, 5′S)-4-(Hydroxymethyl)bicyclo[3.1.0]hex-2-en-1-yl)-5-methylpyrimidine-2,4(1H,3H)-dione]
Anti-HIV activity (HIV-1): inactive

Nc1ccn([C@@]23C=C[C@@H](CO)[C@@H]2C3)c(=O)n1 [Compound 6d, 4-Amino-1-((1′S, 4′R, 5′S)-4-(hydroxymethyl)bicyclo[3.1.0]hex-2-en-1-yl)pyrimidin-2(1H)-one]
Selectivity index (cytotoxicity versus infectivity), HOS cells [1]: 15.8 | EC50 [1]: 26.8 µM | Anti-HIV activity (HIV-1): +/− active | Selectivity index, HOS-313 cells [2]: 130 | EC50 [2]: 3 µM

Cc1cn([C@H]2C=C[C@@H](CO)O2)c(=O)[nH]c1=O [Compound D4T, stavudine]
Phosphorylation by cellular thymidine kinase (TK), less efficient than for AZT [3]: 500 fold

Cc1cn([C@H]2C[C@H](N=[N+]=[N-])[C@@H](CO)O2)c(=O)[nH]c1=O [AZT]
Affinity for cellular thymidine kinase (TK) ([3]; qualitative): equivalent to that of thymidine itself

Cc1cn([C@H]2C[C@H](O)[C@]3(CO)C[C@H]23)c(=O)[nH]c1=O [Compound 3a, North-methanocarbathymidine]
Anti-HIV activity (HIV): inactive
